Test results taken from US20240246941A1, “SUBSTITUTED 4-(3-AMINOPROP-1-YL)AMINOQUINOLINE ANALOGS AS MODULATORS OF MELANOMA-ASSOCIATED ANTIGEN 11 UBIQUITIN LIGASE” (ST. JUDE CHILDREN'S RESEARCH HOSPITAL, INC., priority 2020, published 2024).

Target: interaction between GST-MAGEA11 MHD and FAM-PCF11_4 peptide (MAGE-A11:PCF11) (Homo sapiens (Human), UniProt P43364)
Experiment: TR-FRET dose response competition assay for disruption of MAGE-A11:PCF11 binding
Conditions: Dose response TR-FRET screening of nine scaffold groups against MAGE-A11:PCF11; read-out: consensus IC50
How it was run: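 Competition TR-FRET at room temperature in 50 mM Tris pH 7.5, 20 mM MgCl2, 0.1 mg/ml BSA, 1 mM DTT: final 5 nM GST-MAGEA11 MHD, 5 nM Tb-anti-GST, 200 nM FAM-PCF11_4, 90 min. Ratio 520/490 nm converted to % inhibition; IC50 from sigmoidal fit.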

Sequence of interaction between GST-MAGEA11 MHD and FAM-PCF11_4 peptide (MAGE-A11:PCF11) (P43364 218-429): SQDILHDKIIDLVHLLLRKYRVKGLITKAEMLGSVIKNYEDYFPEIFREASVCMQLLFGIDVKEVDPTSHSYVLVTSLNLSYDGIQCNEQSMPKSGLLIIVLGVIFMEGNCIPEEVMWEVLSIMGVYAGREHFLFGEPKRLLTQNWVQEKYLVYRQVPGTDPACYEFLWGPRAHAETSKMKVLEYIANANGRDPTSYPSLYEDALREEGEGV

SMILES	IC50 [µM]
CCCCn1c(=O)[nH]c(=O)c2c1nc(-c1ccc(O)c(OC)c1)n2CCC [SJ000429070-1]	69.9
CCn1c(-c2ccc(O)c(OC)c2)nc2c1c(=O)[nH]c(=O)n2Cc1ccccc1 [SJ000430392-1]	69.9
COc1cc(-c2nc3c(c(=O)[nH]c(=O)n3Cc3ccccc3)n2C)ccc1O [SJ000430813-1]	69.9
CCCCn1c(=O)[nH]c(=O)c2c1nc(-c1ccc(OCC(=O)O)cc1)n2CCC(C)C [SJ000431347-1]	69.9
CCCn1c(=O)[nH]c(=O)c2c1nc(-c1cccc(Br)c1)n2CCOC [SJ000431389-1]	69.9
C=CCN(CC=C)C(=O)Cn1cnc2cc(-c3ccc(OC)cc3)sc2c1=O [SJ000431447-1]	69.9
CCCn1c(-c2cc(Br)ccc2F)nc2c1c(=O)[nH]c(=O)n2Cc1ccccc1 [SJ000437843-1]	69.9
Cn1c(-c2ccc(OCC(=O)O)cc2)nc2c1c(=O)[nH]c(=O)n2Cc1ccccc1 [SJ000441071-1]	69.9
COc1ccc(CNC(=O)Cn2cnc3cc(-c4ccc(OC)cc4)sc3c2=O)cc1 [SJ000441316-1]	69.9
COc1ccc(-c2cc3ncn(CC(=O)NCc4ccc(F)cc4)c(=O)c3s2)cc1 [SJ000443969-1]	69.9
O=C(Cn1cnc2cc(-c3ccc(Cl)cc3)sc2c1=O)NCc1ccc(F)cc1 [SJ000444020-1]	69.9
COc1ccccc1CNC(=O)Cn1cnc2cc(-c3ccc(Cl)cc3)sc2c1=O [SJ000444040-1]	69.9
Cc1ccc(CNC(=O)Cn2cnc3cc(-c4ccc(Cl)cc4)sc3c2=O)cc1 [SJ000445272-1]	69.9
COc1ccc(-c2cc3ncn(CC(=O)NCc4ccc(C)cc4)c(=O)c3s2)cc1 [SJ000445282-1]	69.9
CC(=O)Cn1cnc2cc(-c3ccccc3)sc2c1=O [SJ000448314-1]	69.9
COc1ccc(-c2cc3ncn(CC(=O)NCc4ccccc4F)c(=O)c3s2)cc1 [SJ000449696-1]	69.9
COc1ccc(-c2cc3ncn(CC(=O)NCc4ccccc4Cl)c(=O)c3s2)cc1 [SJ000449845-1]	69.9
COC(=O)CSc1nc2cc(-c3ccccc3)sc2c(=O)n1CCN1CCOCC1 [SJ000451551-1]	69.9
CC(C)(C)C(=O)CSc1nc2cc(-c3ccccc3)sc2c(=O)n1CCN1CCOCC1 [SJ000451590-1]	69.9
CCCCCn1c(-c2cccc(OC)c2)nc2c1c(=O)[nH]c(=O)n2CCCC [SJ000451928-1]	69.9
COc1ccccc1CNC(=O)Cn1cnc2cc(-c3ccccc3)sc2c1=O [SJ000452125-1]	69.9
CCCn1cnc2cc(-c3ccc(Cl)cc3)sc2c1=O [SJ000452142-1]	69.9

SMILES	IC50 [µM]
CCCn1c(-c2ccc(OC)cc2)nc2c1c(=O)[nH]c(=O)n2Cc1ccccc1 [SJ000452204-1]	69.9
O=c1c2sc(-c3ccccc3)cc2nc(SCCO)n1CCN1CCOCC1 [SJ000452798-1]	69.9
Cc1ccccc1CNC(=O)Cn1cnc2cc(-c3ccccc3)sc2c1=O [SJ000453315-1]	69.9
CCCSc1nc2cc(-c3ccccc3)sc2c(=O)n1CCN1CCOCC1 [SJ000453419-1]	69.9
C=CCSc1nc2cc(-c3ccccc3)sc2c(=O)n1CCN1CCOCC1 [SJ000453564-1]	69.9
COc1ccc(-c2cc3ncn(CC(=O)NCc4ccccc4C)c(=O)c3s2)cc1 [SJ000455215-1]	69.9
O=C(Cn1cnc2cc(-c3ccc(Cl)cc3)sc2c1=O)NCc1ccccc1F [SJ000455225-1]	69.9
O=C(Cn1cnc2cc(-c3ccccc3)sc2c1=O)NCc1ccccc1Cl [SJ000455850-1]	69.9
C=C(C)CSc1nc2cc(-c3ccccc3)sc2c(=O)n1CCN1CCOCC1 [SJ000456069-1]	0.861
O=C(Cn1cnc2cc(-c3ccccc3)sc2c1=O)NCc1ccccc1OC(F)(F)F [SJ000456118-1]	69.9
C=C(C)Cn1cnc2cc(-c3ccc(Cl)cc3)sc2c1=O [SJ000456507-1]	69.9
CCCn1c(-c2ccc(F)cc2)nc2c1c(=O)[nH]c(=O)n2Cc1ccccc1 [SJ000456724-1]	69.9
COc1ccc(CNC(=O)Cn2cnc3cc(-c4ccc(Cl)cc4)sc3c2=O)cc1 [SJ000457620-1]	69.9
COc1ccc(-c2cc3ncn(CC(=O)NCc4ccc(Cl)cc4)c(=O)c3s2)cc1 [SJ000457991-1]	69.9
N#CCCn1cnc2cc(-c3ccc(F)cc3)sc2c1=O [SJ000458551-1]	69.9
CCCn1c(=O)[nH]c(=O)c2c1nc(-c1ccc(OC(F)F)c(OC)c1)n2CCOC [SJ000459257-1]	69.9
CCCCCn1c(-c2cccc(F)c2)nc2c1c(=O)[nH]c(=O)n2CCCC [SJ000460165-1]	69.9
CCCn1c(=O)[nH]c(=O)c2c1nc(-c1ccc(F)c(F)c1)n2CCOC [SJ000460758-1]	69.9
CC(NC=O)c1ccc2c(c1)c1ccccc1n2C (centres unmarked) [SJ000461804-1]	69.9
CCn1c2ccccc2c2cc(C(C)NC=O)ccc21 (centres unmarked) [SJ000461805-1]	69.9
CC1CN(c2oc(-c3ccc([N+](=O)[O-])cc3)nc2C#N)CC(C)O1 (centres unmarked) [SJ000478204-1]	69.9
CC1CN(c2oc(-c3ccc(Cl)cc3)nc2C#N)CC(C)O1 (centres unmarked) [SJ000478208-1]	69.9

SMILES	IC50 [µM]
COc1ccc(-c2nc(C#N)c(N3CC(C)OC(C)C3)o2)cc1 (centres unmarked) [SJ000478212-1]	69.9
CCOc1ccc(-c2nc(C#N)c(N3CC(C)OC(C)C3)o2)cc1 (centres unmarked) [SJ000478356-1]	69.9
Cc1ccc(-c2nc(C#N)c(N3CC(C)OC(C)C3)o2)cc1 (centres unmarked) [SJ000478358-1]	69.9
CC1CN(c2oc(-c3ccc(F)cc3)nc2C#N)CC(C)O1 (centres unmarked) [SJ000478453-1]	69.9
CCn1c2ccccc2c2cc(CNCC(C)O)ccc21 (centres unmarked) [SJ000505727-1]	69.9
O=C1c2ccccc2NC(c2ccc(Br)cc2)N1Cc1ccc(Cl)cc1 (centres unmarked) [SJ000508213-1]	69.9
COc1ccc(CN2C(=O)c3ccccc3NC2c2ccc(F)cc2)cc1 (centres unmarked) [SJ000510740-1]	69.9
COc1ccc(CN2C(=O)c3ccccc3NC2c2ccc(C)cc2)cc1 (centres unmarked) [SJ000510741-1]	69.9
COc1ccc(C2Nc3ccccc3C(=O)N2Cc2ccc(F)cc2)cc1 (centres unmarked) [SJ000510742-1]	69.9
COc1ccc(C2Nc3ccccc3C(=O)N2Cc2ccc(C)cc2)cc1 (centres unmarked) [SJ000510743-1]	69.9
COc1ccc(CN2C(=O)c3ccccc3NC2c2ccc(OC)cc2)cc1 (centres unmarked) [SJ000510744-1]	69.9
COc1ccc(CN2C(=O)c3ccccc3NC2c2ccc([N+](=O)[O-])cc2)cc1 (centres unmarked) [SJ000510745-1]	69.9
CN(Cc1ccno1)C(=O)c1ccc2c(c1)c1ccccc1n2C [SJ000516830-1]	69.9
Cc1cc(-c2nc3c(c(=O)[nH]c(=O)n3C)n2C)ccc1Cl [SJ000517919-1]	69.9
Cn1c(-c2ccc3c(c2)OCO3)nc2c1c(=O)[nH]c(=O)n2C [SJ000518479-1]	69.9
FC(F)(F)c1ccccc1CNCCCNc1ccnc2cc(Cl)ccc12 [SJ000520908-2]	69.9
Clc1ccc2c(NCCCNCc3ccc4[nH]ccc4c3)ccnc2c1 [SJ000520909-2]	67.1
Fc1c(F)c(F)c(CNCCCNc2ccnc3cc(Cl)ccc23)c(F)c1F [SJ000520910-1]	69.9
Cc1cc(C)c(CNCCCNc2ccnc3cc(Cl)ccc23)c(C)c1 [SJ000520911-2]	68.1
FC(F)(F)Oc1cccc(CNCCCNc2ccnc3cc(Cl)ccc23)c1 [SJ000521022-2]	69.9
FC(F)(F)c1cccc(CNCCCNc2ccnc3cc(Cl)ccc23)c1 [SJ000521024-1]	69.9

Same assay, conditions: Table 5, dose response TR-FRET screening of 59 quinoline compounds against MAGE-A11:PCF11; read-out: TR-FRET IC50

SMILES	IC50 [µM]
Clc1ccc2c(NCCCN(Cc3ccccc3)Cc3ccc4[nH]ccc4c3)ccnc2c1 [SJ000520430-1]	41.7
Clc1ccc2c(NCCCN(Cc3ccccc3)Cc3c[nH]c4ccccc34)ccnc2c1 [SJ000520433-1]	> 70
Clc1ccc2c(NCCCCN(Cc3ccccc3)Cc3ccc4[nH]ccc4c3)ccnc2c1 [SJ000520434-1]	23.4
COC1CCC(C(F)(F)F)C1CN(CCCCNc1ccnc2cc(Cl)ccc12)Cc1ccccc1 (centres unmarked) [SJ000520444-1]	> 70
Clc1ccc2c(NCCCCN(Cc3ccccc3)Cc3csc4ccccc34)ccnc2c1 [SJ000520446-1]	> 70
Cc1ccc(F)cc1CN(CCCCNc1ccnc2cc(Cl)ccc12)Cc1ccccc1 [SJ000520449-1]	> 70
FC(F)(F)Oc1ccc(CN(CCCCNc2ccnc3cc(Cl)ccc23)Cc2ccccc2)cc1 [SJ000520451-1]	> 70
FC(F)(F)Oc1cccc(CN(CCCCNc2ccnc3cc(Cl)ccc23)Cc2ccccc2)c1 [SJ000520457-1]	> 70
CCCN(CCCNc1ccnc2cc(C(F)(F)F)ccc12)CCC(C)(C)C [SJ000520476-1]	> 70
CCCN(CCCNc1ccnc2cc(C(F)(F)F)ccc12)Cc1ccc(CC)cc1 [SJ000521009-2]	> 70
COC(=O)CCCCCNCCCNc1ccnc2cc(Cl)ccc12 [SJ000521021-1]	31.4

Same assay, conditions: Table 8, representative compounds; read-out: TR-FRET IC50

SMILES	IC50 [µM]
COc1cc(C)c2c(Oc3cccc(C(F)(F)F)c3)c(OC)cc(NC(C)CCCN)c2n1 (centres unmarked) [SJ000518991]	> 65.7
CN(C)C1=C2C=CC=CC2C(CNCCCNc2ccnc3cc(Cl)ccc23)C=C1 (centres unmarked) [SJ000520354]	69.9
FC(F)(F)c1ccccc1CNCCCNc1ccnc2cc(Cl)ccc12 [SJ000520908]	69.9
Fc1c(F)c(F)c(CNCCCNC2CCNC3(Cl)CCC23)c(F)c1F (centres unmarked) [SJ000520910]	69.9
Cc1cc(C)c(CNCCCNc2ccnc3cc(Cl)ccc23)c(C)c1 [SJ000520911]	68.1
FC(F)(F)Oc1cccc(CNCCCNc2ccnc3cc(Cl)ccc23)c1 [SJ000521022]	69.9
FC(F)(F)c1cccc(CNCCCNc2ccnc3cc(Cl)ccc23)c1 [SJ000521024]	69.9
